Values after ≈ are worked out from the molar mass of the structure shown.
How the values were obtained:
Assay in all cases: in vitro antibacterial evaluation, MIC by broth dilution
Assay type in all cases: cell-based
Staphylococcus sp. = conditions: broth dilution, 18 hours at 35° C.; for MIC Staphylococcus aureus (GC 1131): strain GC 1131
Summary of the method: (§1)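 Following National Committee for Clinical Laboratory Standards recommendations (M7-A2), susceptibility was measured by dilution in Muller-Hinton II […]. Bacteria were seeded at 5×10^5 CFU/mL against compound concentrations from 64 down to 0.06 μg/mL.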

Escherichia coli = test system: Escherichia coli
Summary of the method: as §1

Enterococcus sp. = conditions: broth dilution, 18 hours at 35° C.
Summary of the method: as §1

Streptococcus sp. = conditions: broth dilution, 18 hours at 35° C.
Summary of the method: as §1

- MIC Staphylococcus aureus (GC 1131) (Staphylococcus sp.; inoculum 5×10^5 CFU/mL): 1 µg/mL (≈ 0.702 µM)
- MIC Staphylococcus aureus (ATCC 29213) (Staphylococcus sp.; strain ATCC 29213): 1 µg/mL (≈ 0.702 µM)
- MIC Staphylococcus aureus (GC 1131) (Staphylococcus sp.): 1 µg/mL (≈ 0.702 µM)
- MIC Staphylococcus aureus (GC 3051) (Staphylococcus sp.; strain GC 3051): 1 µg/mL (≈ 0.702 µM)
- MIC Staphylococcus aureus (GC 3053) (Staphylococcus sp.; strain GC 3053): <0.5 µg/mL
- MIC Staphylococcus aureus (GC 4541) (Staphylococcus sp.; strain GC 4541): 1 µg/mL (≈ 0.702 µM)
- MIC Staphylococcus aureus (GC 4542) (Staphylococcus sp.; strain GC 4542): 1 µg/mL (≈ 0.702 µM)
- MIC Staphylococcus aureus-SMITH (GC 4543) (Staphylococcus sp.; strain GC 4543): 1 µg/mL (≈ 0.702 µM)
- MIC Staphylococcus aureus (GC 4544) (Staphylococcus sp.; strain GC 4544): 1 µg/mL (≈ 0.702 µM)
- MIC Staphylococcus aureus (GC 4545) (Staphylococcus sp.; strain GC 4545): <0.5 µg/mL
- MIC Coagulase Negative Staphylococcus (GC 4547) (Staphylococcus sp.; strain GC 4547): <0.5 µg/mL
- MIC Coagulase Negative Staphylococcus (GC 4548) (Staphylococcus sp.; strain GC 4548): <0.5 µg/mL
- MIC Coagulase Negative Staphylococcus (GC 4549) (Staphylococcus sp.; strain GC 4549): <0.5 µg/mL
- MIC Coagulase Negative Staphylococcus (GC 4551) (Staphylococcus sp.; strain GC 4551): <0.5 µg/mL
- MIC Coagulase Negative Staphylococcus (GC 6257) (Staphylococcus sp.; strain GC 6257): <0.5 µg/mL
- MIC Staphylococcus aureus-SMITH (GC 4543) (Staphylococcus sp.; strain SMITH GC 4543): 1 µg/mL (≈ 0.702 µM)
- MIC Escherichia coli (ATCC 25922) (Escherichia coli; strain ATCC 25922, 18 hours at 35° C.): 64 µg/mL (≈ 44.9 µM)
- MIC Escherichia coli (GC 4559) (Escherichia coli; strain GC 4559, 18 hours at 35° C.): 64 µg/mL (≈ 44.9 µM)
- MIC Escherichia coli (GC 4560) (Escherichia coli; strain GC 4560, 18 hours at 35° C.): 1 µg/mL (≈ 0.702 µM)
- MIC Enterococcus avium (GC 4558) (Enterococcus sp.; Enterococcus avium (GC 4558)): 1 µg/mL (≈ 0.702 µM)
- MIC Enterococcus faecalis (ATCC 29212) (Enterococcus sp.; Enterococcus faecalis (ATCC 29212)): <0.5 µg/mL
- MIC Enterococcus faecalis (GC 2242) (Enterococcus sp.; Enterococcus faecalis (GC 2242)): <1 µg/mL
- MIC Enterococcus faecalis (GC 2691) (Enterococcus sp.; Enterococcus faecalis (GC 2691)): 1 µg/mL (≈ 0.702 µM)
- MIC Enterococcus faecalis (GC 3059) (Enterococcus sp.; Enterococcus faecalis (GC 3059)): 1 µg/mL (≈ 0.702 µM)
- MIC Enterococcus faecalis (GC 4552) (Enterococcus sp.; Enterococcus faecalis (GC 4552)): 1 µg/mL (≈ 0.702 µM)
- MIC Enterococcus faecalis (GC 4553) (Enterococcus sp.; Enterococcus faecalis (GC 4553)): 1 µg/mL (≈ 0.702 µM)
- MIC Enterococcus faecalis (GC 4554) (Enterococcus sp.; Enterococcus faecalis (GC 4554)): 1 µg/mL (≈ 0.702 µM)
- MIC Enterococcus faecalis (GC 6189) (Enterococcus sp.; Enterococcus faecalis (GC 6189)): 1 µg/mL (≈ 0.702 µM)
- MIC Enterococcus faecium (GC 2243) (Enterococcus sp.; Enterococcus faecium (GC 2243)): 1 µg/mL (≈ 0.702 µM)
- MIC Enterococcus faecium (GC 4556) (Enterococcus sp.; Enterococcus faecium (GC 4556)): 1 µg/mL (≈ 0.702 µM)
- MIC Enterococcus faecium (GC 4557) (Enterococcus sp.; Enterococcus faecium (GC 4557)): 1 µg/mL (≈ 0.702 µM)
- MIC Enterococcus faecalis (ATCC 29212) (Enterococcus sp.; strain ATCC 29212): <0.5 µg/mL
- MIC Enterococcus faecalis (GC 2242) (Enterococcus sp.; strain GC 2242): <1 µg/mL
- MIC Enterococcus faecium (GC 2243) (Enterococcus sp.; strain GC 2243): 1 µg/mL (≈ 0.702 µM)
- MIC Enterococcus faecalis (GC 2691) (Enterococcus sp.; strain GC 2691): 1 µg/mL (≈ 0.702 µM)
- MIC Enterococcus faecalis (GC 3059) (Enterococcus sp.; strain GC 3059): 1 µg/mL (≈ 0.702 µM)
- MIC Enterococcus faecalis (GC 4552) (Enterococcus sp.; strain GC 4552): 1 µg/mL (≈ 0.702 µM)
- MIC Enterococcus faecalis (GC 4553) (Enterococcus sp.; strain GC 4553): 1 µg/mL (≈ 0.702 µM)
- MIC Enterococcus faecalis (GC 4554) (Enterococcus sp.; strain GC 4554): 1 µg/mL (≈ 0.702 µM)
- MIC Enterococcus faecium (GC 4556) (Enterococcus sp.; strain GC 4556): 1 µg/mL (≈ 0.702 µM)
- MIC Enterococcus faecium (GC 4557) (Enterococcus sp.; strain GC 4557): 1 µg/mL (≈ 0.702 µM)
- MIC Enterococcus avium (GC 4558) (Enterococcus sp.; strain GC 4558): 1 µg/mL (≈ 0.702 µM)
- MIC Enterococcus faecalis (GC 6189) (Enterococcus sp.; strain GC 6189): 1 µg/mL (≈ 0.702 µM)
- MIC Streptococcus agalactiae (GC 4564) (Streptococcus sp.; Streptococcus agalactiae (GC 4564)): <0.5 µg/mL
- MIC Streptococcus pneumoniae (ATCC 6301) (Streptococcus sp.; Streptococcus pneumoniae (ATCC 6301)): <0.5 µg/mL
- MIC Streptococcus pneumoniae (GC 1894) (Streptococcus sp.; Streptococcus pneumoniae (GC 1894)): <0.5 µg/mL
- MIC Streptococcus pneumoniae (GC 4565) (Streptococcus sp.; Streptococcus pneumoniae (GC 4565)): <0.5 µg/mL
- MIC Streptococcus pyogenes (GC 4563) (Streptococcus sp.; Streptococcus pyogenes (GC 4563)): <0.5 µg/mL
- MIC Streptococcus pneumoniae (ATCC 6301) (Streptococcus sp.; strain ATCC 6301): <0.5 µg/mL
- MIC Streptococcus pneumoniae (GC 1894) (Streptococcus sp.; strain GC 1894): <0.5 µg/mL
- MIC Streptococcus pyogenes (GC 4563) (Streptococcus sp.; strain GC 4563): <0.5 µg/mL
- MIC Streptococcus agalactiae (GC 4564) (Streptococcus sp.; strain GC 4564): <0.5 µg/mL
- MIC Streptococcus pneumoniae (GC 4565) (Streptococcus sp.; strain GC 4565): <0.5 µg/mL
Structure (SMILES): CCCc1ccc(C2OCC3OC(OC4C(CO)OC(Oc5ccc(CC6NC(=O)C(C(C)c7ccccc7)NC(=O)CNC(=O)C(CO)NC(=O)C(C(O)C7CNC(=N)N7C7OC(CO)C(O)C(O)C7O)NC(=O)C(C(O)C7CNC(=N)N7)NC6=O)cc5)C(O)C4O)C(O)C(O)C3O2)cc1 (stereo not drawn) [Example 140, Cyclo[glycyl-β-methylphenylalanyl-O-[4-O-[4,6-O-(4-propylbenzylidene)hexopyranosyl]-hexopyranosyl]tyrosyl-3-(2-iminoimidazolidin-4-yl)seryl-3-(3-hexopyranosyl-2-iminoimidazolidin-4-yl)serylseryl]]
- MIC Staphylococcus haemolyticus (GC 4546) (Staphylococcus sp.; strain GC 4546): 1 µg/mL (≈ 0.702 µM)

Source: patent US6914045B2, “Glycopeptide antibiotics” (Wyeth Holdings Corporation, priority 2001, dated 2005)
